Patent US20050208496A1, “Methods of testing for bronchial asthma or chronic obstructive pulmonary disease” (Genox Research, Inc., priority 2002, published 2005)

Test system: Balb/c mice
Assay: OVA antigen-exposed bronchial hypersensitivity mouse model, respiratory constriction caused by acetylcholine
Format: in vivo
Conditions: 5 mg/kg orally
Experimental: 50 μg OVA and 1 mg aluminum hydroxide (an adjuvant) were injected into the peritoneal cavity of Balb/c mice (male, seven-week old), and after 10 days the mice was sensitized with OVA under the same conditions. Then, after 10 days, 1% OVA was given by inhalation using the Ultra-nebulizer model UN701 (Azwell (Co., Ltd.)) for 30 minutes every four days three times in total. Enhanced bronchial hypersensitivity was monitored by detecting the respiratory constriction caused by acetylcholine (6.25-2000 μg/kg) using an artificial respirator (model 131, New England Medical Instruments Inc.) 24 hours after the final antigen inhalation (Nagai H. et al, Int Arch Allergy Immunol; 108: 189-195, 1995). Bronchial hypersensitivity can be induced by this treatment.

C[C@]12C=CC(=O)C=C1CC[C@@H]1[C@@H]2[C@@H](O)C[C@@]2(C)[C@H]1CC[C@]2(O)C(=O)CO [Prednisolone]
development of bronchial hypersensitivity: suppressed
